Assay results reported in US9290555B2, “Reagents and methods for treating dental disease” (University of Washington Through its Center for …, priority 2011, dated 2016).
Entries after “also recorded” stand apart in the source; their conditions may differ. Each block holds one molecule with its values, some of them ahead of it.

Columns and labels:
Binding analysis via QCM = conditions: for Kd: binding to HAp, read-out: KD (dissociation constant); for binding affinity to HAp (in words): compared with ADP1, ADP2, ADP4, ADP7
Experimental: Calcium phosphate coated QCM electrodes were purchased commercially. (Q-Sense, Sweden) The diameter of the crystals and electrodes were 8.8 mm and 5.0 mm, respectively. […] A 12 V DC current was applied to the oscillator circuit to drive the crystal, and the frequency was measured with a Hewlett-Packard 53131A frequency counter sampling at 225 Hz (Universal Counter, Agilent Technologies). After the crystal was mounted in the cell, they were cleaned and dried with high-purity nitrogen gas and used immediately. To establish a stable baseline, a sufficient amount of buffer solution was introduced into the cell before adding the peptide. The frequency change of the crystal in pure buffer solution was recorded for 30 to 60 minutes. After this, the desired amount of ADPs was introduced into the cell and the frequency change was recorded continuously.
The dissociation constants (KD) of the peptides were determined. The KD is an equilibrium constant that represents the concentration necessary to achieve 50% surface coverage. […] (FIG. 2a, Table 1)

[1] = Microstructural and crystallographic analysis of the synthesized minerals (SEM, TEM, XRD); conditions: for mineral morphology: SEM/TEM of minerals formed in solution with peptide; for crystal phase of the mineral formed (XRD): XRD of minerals formed in solution; for amount of radiating crystalline blade-like particles emanating from the spherulites: compared to weak binders and no peptide control
Experimental: (§1) For the mineralization experiments, mineralization solutions containing 24 mM Ca^2+ and 14.4 mM β-GP and 0.4 mM peptide was prepared in 25 mM Tris-HCl buffer (pH 7.4). A mineralization solution containing no peptide was prepared as the negative control. Mineralization reactions were commenced by adding bacterial AP to the solution at a final concentration of 1.4×10^−6 g/mL. Subsequent mineral formation kinetics was monitored by continuous measuring of absorbance at 820 nm wave length using a Tecan Safire microplate reader (Tecan Trading AG, Switzerland) as well as by periodic assays of calcium ions throughout the reaction. For periodic assays of calcium and phosphate, 10 μL of the reaction solution was collected at 0.25-, 0.5-, 1- and 1.5-hr. The calcium concentration in the solutions was determined using QuantiChrome Calcium Assay Kit (Bioassays, U.S.A.). All mineralization reactions were carried out at 37° C. Samples for electron microscopy analysis were prepared by placing a 10 μL aliquot from the reaction solution onto a carbon coated TEM grid. After 1 min, liquid on the TEM grid was carefully wicked away and the grids were vacuum-dried for 5 min. The dried grids were stored in a desiccated container until analyzed. SEM imaging was performed at 10 kV using a JSM 7000F (JEOL, Japan) SEM in secondary electron imaging mode. TEM imaging and electron diffraction analysis were performed using an EMS 420T TEM (FEI, Inc., USA; formerly Philips, The Netherlands) operated at 120 kV.

[2] = In vitro solution biomineralization, alkaline phosphatase based mineralization model; format: biochemical; conditions: for mineralization trend (kinetics): 0.4 mM peptide, 24 mM Ca2+, 14.4 mM β-GP, 37° C., initial 90 minutes; for available free Ca2+ consumed: at the end of the 90 minutes
Experimental: An alkaline phosphatase (AP) based mineralization model was used as described before to investigate the mineralization behaviors of the peptides (22) (see Supporting Information for details). […]
as §1

[3] = Ex vivo re-mineralization of tooth root; set-up: species or system human
Experimental: The cementum-root stock blocks were prepared from single rooted, extracted adult teeth collected at the University of Washington Dental School clinics. No individual identifiers were used and the use of such material complied with the Institutional Review Board guidelines. The teeth were kept in 70% ethanol solution at 4° C. until the specimens were prepared. Cylindrical blocks of 4 mm diameter were cut from the acellular cementum, close to the cementoenamel junction using a trephine bur. The teeth were kept immersed in 70% ethanol-phosphate buffered saline (PBS) during the cutting to prevent heat damage due to friction. The cut cylindrical blocks were cleaned of contaminating material using PBS and demineralized with 35% phosphoric acid gel for 10 seconds. The specimens were stored in 70% ethanol-PBS solution at 4° C. until used.
Prior to coating the specimens with the peptide, the previously cut cylindrical blocks were rehydrated and equilibrated for 2 hours in 24 mM Tris-HCl buffer, pH 7.4. The lyophilized ADP was dissolved in 24 mM Tris-HCl buffer, pH 7.4 to a final concentration of 0.4 mM. A 50 μl drop of the ADP solution was dropped on top of the specimens and left on the specimen for 10 minutes at room temperature in a water saturated chamber to prevent evaporation. Control specimens were identically prepared only by dropping 50 μl of buffer alone. At the end of 10 minutes, the samples were rinsed twice with deionized water. Fluorescent microscopy analysis was performed with fluorescein isothiocyanate-labeled ADP (fADP).
Solutions of 9.6 mM CaCl2 and 5.6 mM (PO4)^−3, a mixture of NaH2PO4—H2O and Na2HPO4-7H20, were prepared in 24 mM Tris-HCl buffer, pH 7.4. The peptide coated and non-coated control specimens were placed in 300 μl of Ca^+2 solution and an equal volume of (PO4)^−3 solution was added to achieve a final concentration of 4.8 mM of Ca^+2 and 2.8 mM of (PO4)^−3. The specimens were incubated in the mineralization solution for 2 hours at 37° C. in a water saturated atmosphere, removed from the mineralization solution and rinsed with 24 mM Tris-HCl buffer, pH 7.4. […]

Kd (Binding analysis via QCM): 1430 nM
Molecule: HPPSHTLQPHHHLPVV [ADP4]
mineral morphology [1]: spherulitic particles
crystal phase of the mineral formed (XRD) [1]: none of the other strong binders
amount of radiating crystalline blade-like particles emanating from the spherulites [1]: slightly higher

Kd (Binding analysis via QCM): 1150 nM
mineralization trend (kinetics) [2]: slow mineralization trend
Molecule: HPPSHTLQPHHHLPVVPAQQPVAPQQPMMPVPGHHSMTPTQH [ADP7]
mineral morphology [1]: Needle like nano-crystals
crystal phase of the mineral formed (XRD) [1]: crystalline HAp; also recorded: HA precipitation was only observed in ADP7; also recorded: characteristic peaks belonging to the HAp crystal structure

Kd (Binding analysis via QCM): 1400 nM
Molecule: HTLQPHHHLPVV [ADP1]
mineral morphology [1]: spherulitic particles
crystal phase of the mineral formed (XRD) [1]: none of the other strong binders
amount of radiating crystalline blade-like particles emanating from the spherulites [1]: slightly higher

Kd (Binding analysis via QCM): 6250 nM
binding affinity to HAp (in words) (Binding analysis via QCM): lower
Molecule: LPPLFSMPLSPILPELPLEAWPAT [ADP6]
mineral morphology [1]: spherulitic particles

Kd (Binding analysis via QCM): 3140 nM
binding affinity to HAp (in words) (Binding analysis via QCM): lower
Molecule: PAQQPVAPQQPMMP [ADP8]
mineral morphology [1]: spherulitic particles

Kd (Binding analysis via QCM): 50000 nM
binding affinity to HAp (in words) (Binding analysis via QCM): lower
mineralization trend (kinetics) [2]: fast mineralization trend
available free Ca2+ consumed [2]: more than half
Molecule: PGYINLSYEKSHSQAINTDRTA [ADP5]
mineral morphology [1]: much smaller spherulites
Ca/P ratio ([3]; EDX spectra of the cementomimetic layer): 1.67
thickness of mineral layer ([3]; SEM and TEM cross-section): 10-15 μm
elemental composition by EDS ([3]; peptide coated samples after 2 hours): substantial Ca and P peaks

Kd (Binding analysis via QCM): 1610 nM
Molecule: VPGHHSMTPTQH [ADP2]
mineral morphology [1]: spherulitic particles
crystal phase of the mineral formed (XRD) [1]: none of the other strong binders
amount of radiating crystalline blade-like particles emanating from the spherulites [1]: slightly higher

Kd (Binding analysis via QCM): 6400 nM
binding affinity to HAp (in words) (Binding analysis via QCM): lower
Molecule: WPATDKTKREEVD [ADP3]
mineral morphology [1]: spherulitic particles

mineralization trend (kinetics) [2]: fast mineralization trend
available free Ca2+ consumed [2]: more than half
B1: rM180: recombinant mouse 180 amino acid long amelogenin (protein, UniProt P63277 17-210, looked up)
Amelogenin, X isoform: MPLPPHPGSPGYINLSYEKSHSQAINTDRTALVLTPLKWYQSMIRQPYPSYGYEPMGGWLHHQIIPVLSQQHPPSHTLQPHHHLPVVPAQQPVAPQQPMMPVPGHHSMTPTQHHQPNIPPSAQQPFQQPFQPQAIPPQSHQPMQPQSPLHPMQPLAPQPPLPPLFSMQPLSPILPELPLEAWPATDKTKREEVD
mineral morphology [1]: Needle like nano-crystals
crystal phase of the mineral formed (XRD) [1]: crystalline HAp
crystal phase of the mineral formed (XRD) ([1]; listed as amelogenin): characteristic peaks belonging to the HAp crystal structure
